{"source": "patent US20100331233A1", "about": "“CRYSTAL OF XPA AND ERCC1 COMPLEX AND USES THEREOF” (priority 2007, published 2010)", "key": {"[1]": {"tested_on": "NER activity in HeLa cell extracts", "assay": "In vitro NER assay: excision of a 1,3-intrastrand cisplatin adduct from plasmid in HeLa cell extract with XPA peptide", "assay_type": "biochemical"}, "[2]": {"molecular_target": "T1, ERCC192-214 (Homo sapiens, UniProt P07992)", "T1 construct": "an ERCC1 central domain fragment consisting of amino acids 92-214 preceded by an N-terminal hexahistidine tag; made in house; host or cells: E. coli BL21(DE3), M9 minimal media with 15N-labeled NH4Cl", "T1 sequence (P07992 92-214)": "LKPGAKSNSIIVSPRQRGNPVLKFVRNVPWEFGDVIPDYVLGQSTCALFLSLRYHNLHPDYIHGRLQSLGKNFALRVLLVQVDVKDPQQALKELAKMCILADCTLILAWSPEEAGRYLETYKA", "assay": "15N HSQC NMR chemical shift perturbation of 15N-labeled ERCC1", "assay_type": "binding", "details": "15N HSQC spectrum of ERCC1-XPA complex; read-out: dissociation equilibrium constant implied by slow-exchange regime", "method": "FIG. 3 illustrates the binding of XPA67-80 in a shallow groove of ERCC1. (A) A comparison of the two dimensional HSQC spectra for ^15N-labeled ERCC192-214 in the presence and absence of an unlabeled XPA67-80 peptide. The ^15N HSQC spectra reveal significant chemical shift changes for some ERCC1 residues (labeled) in the absence or presence of unlabeled XPA67-80. (B) Combined average chemical shift perturbations are calculated as Δχave=[((Δχ1H)^2+(Δχ15N/5)^2)/2)]^1/2 for each backbone amide of ERCC1 and shown as a histogram.\nNMR experiments and determination of the structure of XPA-ERCC1 complex. All NMR data were acquired in the NMR Buffer described above. […] Backbone assignments of the free ERCC192-214 and ERCC1-XPA67-80 complex were performed using a standard set of triple-resonance experiments: HNCA/HN(CO)CA, HN(CA)CB/HN(COCA)CB and HNCO/HN(CA)CO.\nIdentification of the ERCC1 binding site in complex with XPA. The binding site for XPA on the surface of ERCC1 (FIG. 2B) was identified using two dimensional HSQC experiments. […] The ^15N HSQC spectrum of the ERCC1-XPA complex is consistent with a slow-exchange regime, implying a dissociation equilibrium constant below 1 μM for the complex. The XPA binding site on the ERCC1 central domain was identified using the backbone assignments for […] alone and in complex with XPA (see below). […]"}}, "note": "No end group written: not given here.", "data": [{"sequence": "KIIDTGGGFILEEE [XPA67-80]", "values": [{"measurement": "NER activity at 92 μM peptide", "setting": "[1]; HeLa cell extract, 92 μM", "value": "completely abolishes NER activity"}, {"measurement": "effect on NER excision of the lesion-containing oligonucleotide", "setting": "[1]; HeLa cell free extract, plasmid with 1,3-cisplatin intrastrand crosslink, peptide 46 nM to 92 μM", "value": "inhibits the in vitro NER reaction"}, {"measurement": "Kd", "setting": "[2]", "value": "< 1000", "unit": "nM"}]}]}
